Data as given in ChEMBL document CHEMBL3596115, “Discovery of novel guanidinophenylpyrazole human acrosin inhibitors by molecular hybridization” (Medchemcomm, 2014).

Target: Acrosin (Homo sapiens, UniProt P10323)
Assay: Inhibition of acrosin in human liquefied human semen using BAPNA incubated at 37.8 degC for 3 hrs by spectrophotometry

Chain of Acrosin (P10323 20-42 limits assumed): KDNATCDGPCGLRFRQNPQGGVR
Chain of Acrosin (P10323 43-343 limits assumed): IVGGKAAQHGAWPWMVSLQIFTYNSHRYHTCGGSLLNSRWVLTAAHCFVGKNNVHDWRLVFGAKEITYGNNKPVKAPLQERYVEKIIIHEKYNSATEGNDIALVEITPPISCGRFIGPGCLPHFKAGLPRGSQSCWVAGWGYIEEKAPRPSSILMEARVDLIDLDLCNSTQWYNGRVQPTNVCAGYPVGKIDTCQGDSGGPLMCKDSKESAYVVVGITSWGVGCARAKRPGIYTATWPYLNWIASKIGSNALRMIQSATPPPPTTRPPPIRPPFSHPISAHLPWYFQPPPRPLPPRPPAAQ

Compound | IC50 [µM]
COC(=O)c1ccc(OC(=O)c2ccc(NC(=N)N)cc2)cc1 | 2.41
N=C(N)Nc1ccc(-c2cc(C(=O)Nc3ccc(F)cc3)n[nH]2)cc1 | 24.5
N=C(N)Nc1ccc(-c2cc(C(=O)Nc3ccccc3)n[nH]2)cc1 | 15.1
COc1ccc(NC(=O)c2cc(-c3ccc(NC(=N)N)cc3)[nH]n2)c(OC)c1 | 2.38
COc1ccc(OC)c(NC(=O)c2cc(-c3ccc(NC(=N)N)cc3)[nH]n2)c1 | 1.26
Cc1cccc(NC(=O)c2cc(-c3ccc(NC(=N)N)cc3)[nH]n2)c1 | 9.43
COc1ccc(NC(=O)c2cc(-c3ccc(NC(=N)N)cc3)[nH]n2)cc1 | 11.3
N=C(N)Nc1ccc(-c2cc(C(=O)Nc3cccc(Cl)c3)n[nH]2)cc1 | 17.7
N=C(N)Nc1ccc(-c2cc(C(=O)Nc3ccc(Br)cc3)n[nH]2)cc1 | 16.1
CCOC(=O)c1ccccc1NC(=O)c1cc(-c2ccc(NC(=N)N)cc2)[nH]n1 | 5.73
N=C(N)Nc1ccc(-c2cc(C(=O)Nc3ccc4c(c3)OCCO4)n[nH]2)cc1 | 25.4
Cc1ccccc1NC(=O)c1cc(-c2ccc(NC(=N)N)cc2)[nH]n1 | 10.9
Cc1cc(C)cc(NC(=O)c2cc(-c3ccc(NC(=N)N)cc3)[nH]n2)c1 | 9.46
N=C(N)Nc1ccc(-c2cc(C(=O)Nc3ccc(Cl)cc3)n[nH]2)cc1 | 23.9
Cc1cccc(NC(=O)c2cc(-c3ccc(NC(=N)N)cc3)[nH]n2)c1C | 8.45
N=C(N)Nc1ccc(-c2cc(C(=O)Nc3cccc(C(F)(F)F)c3)n[nH]2)cc1 | 23.7
Cc1ccc(C)c(NC(=O)c2cc(-c3ccc(NC(=N)N)cc3)[nH]n2)c1 | 7.47
CCN(CC)c1ccc(NC(=O)c2cc(-c3ccc(NC(=N)N)cc3)[nH]n2)cc1 | 25.9
N=C(N)Nc1ccc(-c2cc(C(=O)Nc3cccc(Br)c3)n[nH]2)cc1 | 13.1
N=C(N)Nc1ccc(-c2cc(C(=O)Nc3cccc4ccccc34)n[nH]2)cc1 | 24.4
CC(C)(C)c1ccc(NC(=O)c2cc(-c3ccc(NC(=N)N)cc3)[nH]n2)cc1 | 5.87
Cc1cccc(C)c1NC(=O)c1cc(-c2ccc(NC(=N)N)cc2)[nH]n1 | 4.32
COc1ccc(NC(=O)c2cc(-c3ccc(NC(=N)N)cc3)[nH]n2)cc1OC | 3.44
N=C(N)Nc1ccc(-c2cc(C(=O)Nc3ccc(O)cc3)n[nH]2)cc1 | 28.3
N=C(N)Nc1ccc(-c2cc(C(=O)Nc3ccc(Nc4ccccc4)cc3)n[nH]2)cc1 | 26.8
COc1cccc(NC(=O)c2cc(-c3ccc(NC(=N)N)cc3)[nH]n2)c1 | 2.42
N=C(N)Nc1ccc(-c2cc(C(=O)Nc3ccc(C(F)(F)F)cc3)n[nH]2)cc1 | 16.6
CCOC(=O)c1cc(-c2ccc(NC(=N)N)cc2)[nH]n1 | > 100
N=C(N)Nc1ccc(-c2cc(C(=O)O)n[nH]2)cc1 | > 100

System: not listed separately
Assay: Inhibition of pig trypsin
Design: species or system Sus scrofa

Compound | IC50 [µM]
COc1ccc(OC)c(NC(=O)c2cc(-c3ccc(NC(=N)N)cc3)[nH]n2)c1 | 2100
